Patent US8592420B2, “Method of treating an anxiety disorder” (Kyowa Hakko Kirin Co., Ltd., priority 2003, dated 2013)

How the values were obtained:
Format in all cases: in vivo
[1] = tested on: male rats; test: Social Interaction Test in the rat (Test Example 5)
Procedure: The method followed that described in Br. J. Pharmacol., 62, 19-24 (1978) with a slight modification.
A pair of male rats were placed in opposite corners of an open-topped arena (50×50×50 cm) and allowed to interact with each other. The time spent in active social interaction (i.e. sniffing, following, grooming, mounting, crawling under or over the partner) was recorded for a 10 minute session.
The test compound or vehicle was administered orally 60 minutes before the test, with each rat of the same pair receiving the same treatment.
Data were analyzed by comparing the result of a treated group with that of a vehicle control group using an unpaired Student's t-tests.

[2] = tested on: Mice; test: Marble Burying Test in the mouse, adjunctive treatment with buspirone or fluoxetine (Test Example 7); conditions: for NUMBER OF MARBLES COVERED BY SAWDUST % change from control / NUMBER OF MARBLES COVERED BY SAWDUST mean ± s.e.m.: Table 5; for NUMBER OF MARBLES COVERED BY SAWDUST mean ± s.e.m.: 60 min before test, vehicle 17.1 ± 1.6; for effect of single administration on number of marbles covered by sawdust: single administration: Compound A 1 mg/kg, buspirone 15 mg/kg, fluoxetine 20 mg/kg, po
Procedure: (§1) The method followed that described in Eur. J. Pharmacol., 126, 223-229 (1986) with a slight modification.
(§2) Mice exposed to a novel object (marbles) tend to bury them in the sawdust floor covering.
(§3) Mice were individually placed in transparent plastic cages with 25 colored marbles (diameter 1.5 cm) on 5 cm of the sawdust floor. The cage was covered with a similar cage upturned.
(§4) The number of marbles covered by sawdust (50% or more) was counted at the end of a 30 minute test.
The test compound or vehicle was administered orally 60 minutes before the test either alone or in combination with buspirone or fluoxetine.
(§5) Data were analyzed by comparing the result of a treated group with that of a vehicle control group using an unpaired Student's t-test.

[3] = tested on: rat; test: Elevated Plus-Maze Test in the rat (Test Example 4)
Procedure: (§6) The method followed that described in Naunyn. Schmied. Arch. Pharmacol., 327, 1-5 (1984) with a slight modification.
(§7) The maze consisted of 4 arms of equal length and width (50×10 cm) arranged in the form of a plus sign (+). Two opposite arms were enclosed by 40 cm high walls (closed arms). The 2 other arms had no walls (open arms). The maze was raised 50 cm above the floor. A rat was placed in the center of the plus-maze and left to explore for 5 minutes. The number of entries into the open and closed arms and the time spent in the open arms was recorded.
The test compound or vehicle was administered orally 60 minutes before the test, respectively.
as §5

[4] = tested on: rat; test: Elevated Plus-Maze Test in the rat, adjunctive treatment with alprazolam (Test Example 8); conditions: for OPEN ARMS NUMBER OF ENTRIES % change from control / OPEN ARMS TIME SPENT % change from control / OPEN ARMS NUMBER OF ENTRIES mean ± s.e.m. / OPEN ARMS TIME SPENT (sec) mean ± s.e.m.: Table 6; for OPEN ARMS NUMBER OF ENTRIES % change from control / OPEN ARMS TIME SPENT % change from control: single compound 1 mg/kg po; for OPEN ARMS NUMBER OF ENTRIES mean ± s.e.m. / OPEN ARMS TIME SPENT (sec) mean ± s.e.m.: single compound 1 mg/kg po 60 min before test; for OPEN ARMS NUMBER OF ENTRIES mean ± s.e.m.: vehicle 2.3 ± 0.6; for OPEN ARMS TIME SPENT (sec) mean ± s.e.m.: vehicle 37.4 ± 9.5; for effect alone on open arm entries and time spent in open arms: alone at 1 mg/kg po
Procedure: as §6, §7
The test compound or vehicle was administered orally 60 minutes before the test either alone or in combination with alprazolam.
as §5

[5] = tested on: Mice; test: Hole-Board Test in the mouse (Test Example 1)
Procedure: The method followed that described in Arch. Int. Pharmacodyn. Ther., 147, 372-387 (1964) with a slight modification.
Mice were individually placed on a square board (35×35 cm) raised 60 cm above the floor, containing 16 equally spaced holes (25 mm diameter). The number of head-dips occurring during a 5 minute test was counted.
(§8) The test compound or vehicle was administered orally 60 minutes before the test.
Data were analyzed by comparing the result of a tested group with that of a vehicle control group using an unpaired Student's t-test.

[6] = tested on: rat; test: Learned Helplessness in the rat (Test Example 3); conditions: FIG. 1, single treatment p.o. 60 min before test
Procedure: The method followed that described in J. Exp. Psychol., 74, 1-9 (1967) with a slight modification.
Preconditioning with inescapable electric foot shock was given individually to each rat in the shuttle box on day 1. A constant current (1.3 mA) shock generator delivered scrambled, inescapable shocks to the grid floor during 50 minute preconditioning period. Control rats were also individually placed in the identical chamber for 50 minutes, but shock was not given. Conditioned avoidance training session (FR1: buzzer 10 seconds, 0.6 mA foot shock; 5 seconds, interval time; 10 seconds/trial, 15 escape trials) and test session (FR2: 0.6 mA foot shock; 10 seconds, interval time; 0.5 seconds, 0.6 mA foot shock; 10 seconds, interval time; 15 seconds/trial, 15 trials) were performed on day 2 consecutively. FR1 session consisted of 15 trials during which a single shuttle response terminated shock and rats learned how to escape shocks. Subsequent FR2 session consisted of 15 trials during which each rat had to cross from one side of the shuttle box to the other and then crossed back to terminate shock. […]
The ratio of escape response was calculated from the following formula. […]
The ratio of intertrial response is calculated from the following formula. […]
Data were analyzed by comparing the result of a tested group with that of a vehicle control group using a Steel test.

[7] = tested on: Mice; test: Marble Burying Test in the mouse (Test Example 2)
Procedure: as §1, §2, §3, §4, §8
Data were analyzed by comparing the result of treated groups with that of a vehicle control group using an unpaired Student's t-test.

[8] = tested on: Male Wistar rats; test: Vogel Conflict Test in the rat (Test Example 10); conditions: Table 7; 1 mg/kg po 60 min before test; 5 minutes punished session; vehicle 4.8 ± 1.3 (for C), 5.7 ± 0.8 (for D)
Procedure: The method followed that described in Psychopharmacol., 21, 1-7 (1971) with a slight modification. Male Wistar rats (160-200 g) were deprived of water for 48 hours prior to test session consisting of a 5 minutes period. Each rat was then placed in a test box (25×30×25 cm). The rat was allowed to explore the drinking spout to drink water. When the rat drinks a drip of water, the electric shock (0.16 mA, duration of 0.2 seconds) was delivered from the floor grid. […] The test compound or a vehicle was administered orally 60 minutes before the test, respectively. Data were analyzed by comparing the result of a tested group with that of a vehicle control group using an unpaired Student's t-test.

Structure (SMILES): CCn1c(=O)c2c(nc(/C=C/c3ccc(OC)c(OC)c3)n2C)n(CC)c1=O [Compound A, (E)-8-(3,4-dimethoxystyryl)-1,3-diethyl-7-methylxanthine]
- TIME SPENT IN ACTIVE SOCIAL INTERACTION (sec) mean ± s.e.m. ([1]; Table 4-A, 3 mg/kg po 60 min before test, 10 minute session, vehicle 97.5 ± 8.7): 153 ± 11.2 s
- NUMBER OF MARBLES COVERED BY SAWDUST % change from control ([2]; Compound A 1 mg/kg po alone): −18%
- NUMBER OF MARBLES COVERED BY SAWDUST mean ± s.e.m. ([2]; Compound A 1 mg/kg po alone): 14.1 ± 1.6
- effect of single administration on number of marbles covered by sawdust [2]: no significant effects
- OPEN ARMS NUMBER OF ENTRIES mean ± s.e.m. ([3]; Table 3-A, 3 mg/kg po 60 min before test, 5 minutes, vehicle 1.9 ± 0.3): 5.4 ± 0.7
- OPEN ARMS TIME SPENT (sec) mean ± s.e.m. ([3]; Table 3-A, 3 mg/kg po 60 min before test, vehicle 38.9 ± 7.7): 143 ± 20.9 s
- OPEN ARMS NUMBER OF ENTRIES % change from control [4]: +65%
- OPEN ARMS TIME SPENT % change from control [4]: +48%
- OPEN ARMS NUMBER OF ENTRIES mean ± s.e.m. [4]: 3.8 ± 0.8
- OPEN ARMS TIME SPENT (sec) mean ± s.e.m. [4]: 55.2 ± 12.1 s
- effect alone on open arm entries and time spent in open arms [4]: moderate effect
- NUMBER OF HEAD-DIPS mean ± s.e.m. ([5]; Table 1-A, 3 mg/kg p.o. 60 min before test, 5 minute test, vehicle 28.6 ± 2.4): 46.7 ± 3.2
- NUMBER OF ENTRIES INTO THE 4 QUADRANTS mean ± s.e.m. ([5]; Table 1-A, 3 mg/kg p.o. 60 min before test, vehicle 12.7 ± 0.8): 24.4 ± 1.7
- escape failure (ratio of escape response, FR2 trial) ([6]; 1.25 mg/kg and more): dose-dependently reversed the escape failure
- intertrial crossings (ratio of intertrial response, FR2 trial) [6]: did not increase intertrial crossings
- NUMBER OF MARBLES COVERED BY SAWDUST % change from control ([7]; Table 2-A, 3 mg/kg p.o. 60 min before test): −50%
- NUMBER OF MARBLES COVERED BY SAWDUST mean ± s.e.m. ([7]; Table 2-A, 3 mg/kg p.o. 60 min before test, 30 minute test, 25 marbles, vehicle 20.9 ± 1.4): 10.5 ± 2.9

Structure (SMILES): COc1cc(/C=C/c2nc3c(c(=O)n(C)c(=O)n3C)n2C)cc(OC)c1OC [Compound B, (E)-1,3,7-trimethyl-8-(3,4,5-trimethoxystyryl)xanthine]
- TIME SPENT IN ACTIVE SOCIAL INTERACTION (sec) mean ± s.e.m. ([1]; Table 4-B, 3 mg/kg po 60 min before test, vehicle 89.0 ± 5.7): 141 ± 6.8 s
- OPEN ARMS NUMBER OF ENTRIES mean ± s.e.m. ([3]; Table 3-B, 1 mg/kg po 60 min before test, vehicle 1.8 ± 0.8): 5.8 ± 0.8
- OPEN ARMS TIME SPENT (sec) mean ± s.e.m. ([3]; Table 3-B, 1 mg/kg po 60 min before test, vehicle 15.6 ± 8.1): 94.4 ± 15.2 s
- NUMBER OF HEAD-DIPS mean ± s.e.m. ([5]; Table 1-B, 3 mg/kg p.o. 60 min before test, vehicle 30.2 ± 3.9): 43.9 ± 4.2
- NUMBER OF MARBLES COVERED BY SAWDUST % change from control ([7]; Table 2-B, 3 mg/kg p.o. 60 min before test): −55%
- NUMBER OF MARBLES COVERED BY SAWDUST mean ± s.e.m. ([7]; Table 2-B, 3 mg/kg p.o. 60 min before test, vehicle 20.6 ± 1.1): 9.3 ± 1.9

Structure (SMILES): Cc1nnc2n1-c1ccc(Cl)cc1C(c1ccccc1)=NC2 [alprazolam, reference compound]
- OPEN ARMS NUMBER OF ENTRIES % change from control [4]: +91%
- OPEN ARMS TIME SPENT % change from control [4]: +53%
- OPEN ARMS NUMBER OF ENTRIES mean ± s.e.m. [4]: 4.4 ± 0.9
- OPEN ARMS TIME SPENT (sec) mean ± s.e.m. [4]: 57.3 ± 12.8 s
- effect alone on open arm entries and time spent in open arms [4]: moderate effect

Structure (SMILES): O=C1CC2(CCCC2)CC(=O)N1CCCCN1CCN(c2ncccn2)CC1 [buspirone]
- NUMBER OF MARBLES COVERED BY SAWDUST % change from control ([2]; buspirone 15 mg/kg po alone): −26%
- NUMBER OF MARBLES COVERED BY SAWDUST mean ± s.e.m. ([2]; buspirone 15 mg/kg po alone): 12.7 ± 1.8
- effect of single administration on number of marbles covered by sawdust [2]: no significant effects

Structure (SMILES): CC(C)(O)CCN1CCN(c2cc3nc(-c4ccco4)nn3c(N)n2)CC1 [Compound C, 5-amino-2-(2-furyl)-7-[4-(3-hydroxy-3-methylbutyl)piperazinyl][1,2,4]triazolo[1,5-c]pyrimidine]
- TIME SPENT IN ACTIVE SOCIAL INTERACTION (sec) mean ± s.e.m. ([1]; Table 4-C, 30 mg/kg po 60 min before test, vehicle 96.2 ± 8.2): 130 ± 9.7 s
- OPEN ARMS NUMBER OF ENTRIES mean ± s.e.m. ([3]; Table 3-C, 30 mg/kg po 60 min before test, vehicle 2.3 ± 0.5, p 0.0503): 4.2 ± 0.8
- OPEN ARMS TIME SPENT (sec) mean ± s.e.m. ([3]; Table 3-C, 30 mg/kg po 60 min before test, vehicle 26.4 ± 6.6): 55.2 ± 10.7 s
- NUMBER OF HEAD-DIPS mean ± s.e.m. ([5]; Table 1-C, 10 mg/kg p.o. 60 min before test, vehicle 30.2 ± 3.9): 46.9 ± 3.4
- NUMBER OF SHOCKS mean ± s.e.m [8]: 10.5 ± 2.1
- NUMBER OF MARBLES COVERED BY SAWDUST % change from control ([7]; Table 2-C, 10 mg/kg p.o. 60 min before test, p 0.08): −17%
- NUMBER OF MARBLES COVERED BY SAWDUST mean ± s.e.m. ([7]; Table 2-C, 10 mg/kg p.o. 60 min before test, vehicle 20.9 ± 1.1, p 0.08): 17.0 ± 1.6

Structure (SMILES): COCCOc1ccc(N2CCN(CCn3ncc4c3nc(N)n3nc(-c5ccco5)nc43)CC2)cc1 [Compound D, 5-amino-2-(2-furyl)-7-(2-{4-[4-(2-methoxyethoxy)phenyl]piperazinyl}ethyl)pyrazolo[4,3-e]-1,2,4-triazolo[1,5-c]pyrimidine]
- NUMBER OF SHOCKS mean ± s.e.m [8]: 10.8 ± 1.6

Structure (SMILES): CNCCC(Oc1ccc(C(F)(F)F)cc1)c1ccccc1 (stereo not drawn) [fluoxetine]
- NUMBER OF MARBLES COVERED BY SAWDUST % change from control ([2]; fluoxetine 20 mg/kg po alone): −20%
- NUMBER OF MARBLES COVERED BY SAWDUST mean ± s.e.m. ([2]; fluoxetine 20 mg/kg po alone): 13.6 ± 2.5
- effect of single administration on number of marbles covered by sawdust [2]: no significant effects
